Test results: patent US8101761B2, “(E)-N-{3-[1-(8-fluoro-11H-10-OXA-1-AZA-dibenzo [A,D] cyclohepten-5ylidene)-propyl]-phenyl}-methanesulfonamide as glucocorticoid receptor modulator for the treatment of rheumatoid arthritis” (Eli Lilly and Company, priority 2008, dated 2012)
Where two headings read alike, the source gives them in different places.

Assays:
[1] = system: carrageenan-induced paw edema in male Sprague-Dawley rats; assay: Carrageenan-induced paw edema (CPE) model; type: in vivo; conditions: rat, oral gavage 2 h before carrageenan, paws taken 3 h after, mean of 5 determinations
Excerpt: Carrageenans are a group of polysaccharides which can induce an acute inflammatory response in animals. Cardinal signs of inflammation including edema, hyperalgesia and erythema are developed in the injection site immediately following injection. The CPE model is a recognized model of inflammation and can be used to evaluate the anti-inflammatory effects of glucocorticoid receptor ligands.
To evaluate the anti-inflammatory effects of Compound (I), the compound is formulated in a vehicle comprising 0.5% carboxymethyl cellulose and 0.25% Tween 80 then administered orally via gavage to male Sprague-Dawley rats (180-200 g). For comparison, prednisolone may be administered orally in the same vehicle. Two hours later, 1% carrageenan in 50 μl of 0.9% pyrogen free saline is injected into the subplantar regions of the right hind paw. Rats are euthanized by CO2 at 3 hours after the carrageenan injection. Paws are removed then weighed using a microbalance. Paws are then dissected by making several cuts on the paw surface and immediately immersing into liquid nitrogen until frozen. Frozen paws are then centrifuged to extract the exudates. Exudate levels of IL-1β, a cytokine generated during the inflammatory response is then measured by ELISA according to manufacturers instructions. Total paw protein is also measured using a protein assay kit and the absolute level of IL-1β is normalized to yield a concentration value of ng IL-1β/mg total protein.

[2] = system: IL-6 production in human skin fibroblast CCD-39SK cells; assay: GR-mediated transrepression: IL-1β-stimulated IL-6 production in human skin fibroblast CCD-39SK cells; type: cell-based; conditions: IL-1β 1 ng/ml
Procedure: 1. IL-1,3-stimulated IL-6 Production in Human Skin Fibroblast CCD-39SK Cells:
Briefly, human skin fibroblast CCD-39SK cells (20,000 cells/well), obtained from ATCC are seeded in 96-well plates in […] growth medium supplemented with 10% FBS, 100 U/ml penicillin, 100 ug/ml streptomycin and 2 mmol/L L-glutamine. Cells are maintained in a humidified chamber with 5% CO2 at 37° C. Test compounds are added to the wells in various concentrations ranging from a final concentration of about […] to 4.64 μM. 0.1 μM of dexamethasone is used as a positive control. 1-hour post treatment with test compound, IL-1β is added at final concentration of 1 ng/ml; and the reaction mixture is incubated overnight. 10 μl of supernatant is removed from each well and IL-6 concentrations are determined using an ELISA kit, with IL-6 concentrations being quantified by reading absorbance at 450 nm.

[3] = target: T1, human GR (glucocorticoid receptor) (Homo sapiens, UniProt P04150); assay: Nuclear hormone receptor competition binding assay, GR
T1 construct: expressed in transfected cells; host or cells: HEK293 (293-GR lysate)
T1 sequence (P04150 1-777): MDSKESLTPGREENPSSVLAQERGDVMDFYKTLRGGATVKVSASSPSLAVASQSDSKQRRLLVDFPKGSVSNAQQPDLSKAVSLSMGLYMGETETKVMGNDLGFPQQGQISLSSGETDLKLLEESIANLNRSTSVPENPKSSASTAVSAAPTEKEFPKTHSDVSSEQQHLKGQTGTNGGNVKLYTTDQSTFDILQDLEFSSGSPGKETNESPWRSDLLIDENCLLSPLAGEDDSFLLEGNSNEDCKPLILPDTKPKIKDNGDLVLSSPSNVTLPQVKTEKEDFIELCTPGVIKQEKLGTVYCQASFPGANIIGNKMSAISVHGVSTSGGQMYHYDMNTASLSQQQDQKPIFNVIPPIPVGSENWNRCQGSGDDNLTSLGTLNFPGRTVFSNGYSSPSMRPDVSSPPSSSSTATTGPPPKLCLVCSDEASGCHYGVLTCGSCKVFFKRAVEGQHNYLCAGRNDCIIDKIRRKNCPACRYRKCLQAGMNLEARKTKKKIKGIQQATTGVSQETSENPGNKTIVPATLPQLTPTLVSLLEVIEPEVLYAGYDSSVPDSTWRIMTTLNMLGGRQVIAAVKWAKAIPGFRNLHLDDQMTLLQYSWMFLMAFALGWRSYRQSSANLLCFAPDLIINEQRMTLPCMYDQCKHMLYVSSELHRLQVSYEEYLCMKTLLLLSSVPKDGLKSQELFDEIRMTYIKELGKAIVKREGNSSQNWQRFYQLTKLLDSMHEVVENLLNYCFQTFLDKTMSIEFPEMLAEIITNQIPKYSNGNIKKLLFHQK
Procedure: Cell lysates from human embryonic kidney HEK293 cells overexpressing human GR (glucocorticoid receptor), AR (androgen receptor), MR (mineralocorticoid receptor), or PR (progesterone receptor) are used for receptor-ligand competition binding assays to determine Ki values.
Briefly, steroid receptor competition binding assays are run in a buffer containing 20 mM Hepes buffer (pH=7.6), 0.2 mM EDTA, 75 mM NaCl, 1.5 mM MgCl2, 20% glycerol, 20 mM sodium molybdate, 0.2 mM DTT (dithiothreitol), 20 μg/ml aprotinin and 20 μg/ml leupeptin. Typically, steroid receptor binding assays include radio-labeled ligands, such as 0.3 nM [^3H]-dexamethasone for GR binding, 0.36 nM [^3H]-methyltrienolone for AR binding, 0.25 nM [^3H]-aldosterone for MR binding, and 0.29 nM [^3H]-methyltrienolone for PR binding, and either 20 μg 293-GR lysate, 22 μg 293-AR lysate, 20 μg 293-MR lysate or 40 μg 293-PR lysate per well. Assays are typically run in 96-well format. Competing test compounds are added at various concentrations ranging from about 0.01 nM to 10 μM. Non-specific binding is determined in the presence of 500 nM dexamethasone for GR binding, 500 nM aldosterone for MR binding, or 500 nM methyltrienolone for AR and PR binding. […] After an incubation of 2 hours, plates are read in a Wallac Microbeta counter. […]

- Ki ([3]; HEK293 lysate overexpressing human GR, [3H]-dexamethasone, mean of n=7): ~0.2 nM
- greater affinity for GR relative to each of human MR, AR, and PR ([3]; ratio of binding affinities): ≥ 15 fold
Structure (SMILES): CC/C(=C1\c2ccc(F)cc2OCc2ncccc21)c1cccc(NS(C)(=O)=O)c1 [Compound (I), (E)-N-{3-[1-(8-Fluoro-11H-10-oxa-1-aza-dibenzo[a,d]cyclohepten-5-ylidene)-propyl]-phenyl}-methanesulfonamide]
- ED50 ([1]; read-out: ED50, inhibition of carrageenan induced paw weight gain): ~2.8 mg/kg
- ED50 ([1]; read-out: ED50, reduction of paw exudate levels of IL-1β): ~3.2 mg/kg
- IC50 ([2]; Homo sapiens, Skin fibroblast, average of n=15, read-out: IC50, inhibition of IL-6 expression): ~8.5 nM
- maximal inhibition of the endogenous expression of IL-6 ([2]; n=15): ≥ 90%
